Experimental data from patent publication US20250026743A1, “HETEROARYL-LINKED ANALOGS AS MGLU5 NEGATIVE ALLOSTERIC MODULATORS AND METHODS OF MAKING AND USING THE SAME” (Vanderbilt University, priority 2021, published 2025).
Read-outs that look alike come from different tables or passages of the source.

Biological target: T1, hmGlu5 (Homo sapiens, UniProt P41594)
T1 construct: expressed in transfected cells; host or cells: HEK 293A
Assay: mGlu5 Ca2+ flux assay in HEK 293A cells (negative allosteric modulation of glutamate EC80 response)
Type: cell-based
Conditions: for remaining activity at 30 µM: HEK293-A, read-out: hmGlu5 NAM Emin (%); for IC50: HEK 293A cells, Ca2+ flux, glutamate EC80, >10,000 = decrease without plateau, read-out: hmGlu5 NAM IC50
Procedure: HEK 293A cells stably expressing either rat or human mGlu5 were plated in black-walled, clear-bottomed, poly-D-lysine coated 384-well plates in 20 μL of assay medium (DMEM containing 10% dialyzed FBS, 20 mM HEPES, 100 units/mL penicillin/streptomycin plus 250 ng/mL Fungizone, and 1 mM sodium pyruvate) at a density of 20K cells/well. The cells were grown overnight at 37° C. in the presence of 5% CO2. The next day, medium was removed and the cells incubated with 20 μL of 2.3 μM Fluo-4, AM prepared as a 2.3 mM stock in DMSO and mixed in a 1:1 ratio with 10% (w/v) pluronic acid F-127 and diluted in assay buffer (Hank's balanced salt solution, 20 mM HEPES, and 2.5 mM probenecid) for 45 minutes at 37° C. Dye was removed, 20 μL of assay buffer was added, and the plate was incubated for 5 minutes at room temperature.
Ca^2+ flux was measured using the Functional Drug Screening System (FDSS7000, Hamamatsu, Japan). After establishment of a fluorescence baseline for about 3 seconds, the compounds of the present invention were added to the cells, and the response in cells was measured. 2.3 minutes later an EC20 concentration of the mGlu5 receptor agonist glutamate was added to the cells, and the response of the cells was measured for 1.9 minutes; an EC80 concentration of agonist was added and readings taken for an additional 1.7 minutes. All test compounds were dissolved and diluted to a concentration of 10 mM in 100% DMSO. Compounds were then serially diluted 1:3 in DMSO into 10 point concentration response curves, transferred to daughter plates, and further diluted into assay buffer to a 2× stock. Calcium fluorescence measures were recorded as fold over basal fluorescence; raw data was then normalized to the maximal response to glutamate. Antagonism of the agonist response of the mGlu5 receptor in the present invention was observed as a decrease in response to nearly maximal concentrations of glutamate in the presence of compound compared to the response to glutamate in the absence of compound.
The raw data file containing all time points was used as the data source in the analysis template. This was saved by the FDSS as a tab-delimited text file. Data were normalized using a static ratio function (F/F0) for each measurement of the total 360 values per well divided by each well's initial value. Data were then reduced to peak amplitudes (Max−Initial Min) using a time range that starts approximately 3 seconds prior to the glutamate EC20/EC80 addition and continues for approximately 90-120 seconds. This is sufficient time to capture the peak amplitude of the cellular calcium response. Individual amplitudes were expressed as % EMax by multiplying each amplitude by 100 and then dividing the product by the mean of the amplitudes derived from the glutamate ECMax-treated wells. IC50 values for test compounds were generated by fitting the normalized values versus the log of the test compound concentration (in mol/L) using a 4 parameter logistic equation where none of the parameters were fixed. Each of the three values collected at each concentration of test compound were weighted evenly.
For NAMs with a CRC that plateaus above 10% Glu Max, the IC50 values are reported, the compound is designated a “partial NAM” and the % Glu Max is reported. […] Compounds without measurable activity are designated as “>30,000 nM” since the top concentration of compound tested in the assay is 30 μM. […]

T1 sequence (P41594 21-1212): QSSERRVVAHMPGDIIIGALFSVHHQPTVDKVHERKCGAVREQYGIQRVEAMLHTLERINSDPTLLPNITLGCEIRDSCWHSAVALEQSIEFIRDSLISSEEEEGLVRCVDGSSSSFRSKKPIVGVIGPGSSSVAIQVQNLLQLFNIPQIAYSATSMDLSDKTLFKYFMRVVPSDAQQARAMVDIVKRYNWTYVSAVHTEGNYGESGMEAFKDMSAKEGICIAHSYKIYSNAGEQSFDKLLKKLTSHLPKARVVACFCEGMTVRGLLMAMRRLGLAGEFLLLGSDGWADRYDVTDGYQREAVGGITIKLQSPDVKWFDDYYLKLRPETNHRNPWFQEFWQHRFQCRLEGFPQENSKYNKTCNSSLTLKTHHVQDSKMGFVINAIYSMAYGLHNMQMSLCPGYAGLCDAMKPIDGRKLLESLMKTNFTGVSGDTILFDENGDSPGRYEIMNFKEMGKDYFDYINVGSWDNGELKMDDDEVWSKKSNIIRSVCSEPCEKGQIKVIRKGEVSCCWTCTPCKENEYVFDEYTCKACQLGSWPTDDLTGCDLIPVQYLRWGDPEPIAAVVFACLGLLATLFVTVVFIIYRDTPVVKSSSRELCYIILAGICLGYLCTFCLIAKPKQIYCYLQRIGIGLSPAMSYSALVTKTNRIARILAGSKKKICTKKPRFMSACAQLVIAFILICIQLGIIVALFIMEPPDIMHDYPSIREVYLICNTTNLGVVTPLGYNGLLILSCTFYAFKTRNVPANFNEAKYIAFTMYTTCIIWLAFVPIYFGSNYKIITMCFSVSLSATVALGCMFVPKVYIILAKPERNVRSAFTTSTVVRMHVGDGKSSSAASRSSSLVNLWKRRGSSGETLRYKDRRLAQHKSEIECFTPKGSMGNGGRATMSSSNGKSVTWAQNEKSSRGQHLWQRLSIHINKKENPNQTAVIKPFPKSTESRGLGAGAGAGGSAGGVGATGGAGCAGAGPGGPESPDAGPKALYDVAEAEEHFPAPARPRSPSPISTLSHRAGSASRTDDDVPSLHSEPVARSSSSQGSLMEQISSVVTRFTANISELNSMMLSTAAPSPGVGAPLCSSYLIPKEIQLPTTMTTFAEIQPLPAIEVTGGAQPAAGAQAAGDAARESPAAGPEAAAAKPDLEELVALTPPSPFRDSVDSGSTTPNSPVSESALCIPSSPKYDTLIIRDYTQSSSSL

remaining activity at 30 µM (% Glu max at 30 μM) [%]	IC50 [nM]	Compound	remaining activity at 30 µM [%]
8	577	Cc1nc(-c2noc(-c3ccc(F)cn3)n2)cc(-c2ccc(Cl)nc2)c1F [Compound 34, 3-(6-chloro-5′-fluoro-6′-methyl-[3,4′-bipyridin]-2′-yl)-5-(5-fluoropyridin-2-yl)-1,2,4-oxadiazole]	
2	149	Fc1ccc(-c2noc(-c3cc(-c4cncc(F)c4)cc(C(F)F)n3)n2)nc1 [Compound 78, 5-(6′-(difluoromethyl)-5-fluoro-[3,4′-bipyridin]-2′-yl)-3-(5-fluoropyridin-2-yl)-1,2,4-oxadiazole]	
3	109	Cc1nc(-c2noc(-c3ccc(F)cn3)n2)cc(-c2cnccc2Cl)c1F [Compound 69, 3-(4-chloro-5′-fluoro-6′-methyl-[3,4′-bipyridin]-2′-yl)-5-(5-fluoropyridin-2-yl)-1,2,4-oxadiazole]	
50	> 10000	Cc1ccncc1-c1cc(-c2noc(Cc3ccnn3C)n2)nc(C)c1F [Compound 56, 3-(5′-fluoro-4,6′-dimethyl-[3,4′-bipyridin]-2′-yl)-5-((1-methyl-1H-pyrazol-5-yl)methyl)-1,2,4-oxadiazole]	
12	3380	COc1ccnc(-c2nc(-c3cc(-c4cnccc4C)c(F)c(C)n3)no2)c1 [Compound 25, 3-(5′-fluoro-4,6′-dimethyl-[3,4′-bipyridin]-2′-yl)-5-(4-methoxypyridin-2-yl)-1,2,4-oxadiazole]	
45	> 10000	Cc1cc(CC2CCOCC2)cc(-c2noc(-c3ccc(F)cn3)n2)n1 [Compound 71, 5-(5-fluoropyridin-2-yl)-3-(6-methyl-4-((tetrahydro-2H-pyran-4-yl)methyl)pyridin-2-yl)-1,2,4-oxadiazole]	
3	493	COc1cncc(-c2cc(-c3noc(-c4ccc(F)cn4)n3)nc(C)c2F)c1 [Compound 30, 3-(5′-fluoro-5-methoxy-6′-methyl-[3,4′-bipyridin]-2′-yl)-5-(5-fluoropyridin-2-yl)-1,2,4-oxadiazole]	
3	98	Cc1ccncc1-c1cc(-c2noc(-c3ccc(F)cn3)n2)nc(C)c1F [Compound 5, 3-(5′-fluoro-4,6′-dimethyl-[3,4′-bipyridin]-2′-yl)-5-(5-fluoropyridin-2-yl)-1,2,4-oxadiazole]	
1	82	Cc1nc(-c2n[nH]c(-c3ccccc3F)n2)cc(-c2cncc(F)c2)c1F [Compound 98, 3′,5-difluoro-6′-(5-(2-fluorophenyl)-1H-1,2,4-triazol-3-yl)-2′-methyl-3,4′-bipyridine]	
6	125	Fc1ccc(-c2nc(-c3cc(-c4cncc(F)c4)cc(C(F)F)n3)no2)nc1 [Compound 61, 3-(6′-(difluoromethyl)-5-fluoro-[3,4′-bipyridin]-2′-yl)-5-(5-fluoropyridin-2-yl)-1,2,4-oxadiazole]	
74	> 10000	Cc1ccncc1-c1cc(-c2noc(-c3cccnn3)n2)nc(C)c1F [Compound 92, 3-(5′-fluoro-4,6′-dimethyl-[3,4′-bipyridin]-2′-yl)-5-(pyridazin-3-yl)-1,2,4-oxadiazole]	
34	5500	Cc1nc(-c2noc(-c3ccccc3F)n2)cc(-c2cncc(F)c2)c1F [Compound 47, 3-(5,5′-difluoro-6′-methyl-[3,4′-bipyridin]-2′-yl)-5-(2-fluorophenyl)-1,2,4-oxadiazole]	
27	> 10000	Cc1ccncc1-c1cc(-c2noc(C(C)c3ccccc3)n2)nc(C)c1F (stereo not shown) [Compound 95, 3-(5′-fluoro-4,6′-dimethyl-[3,4′-bipyridin]-2′-yl)-5-(1-phenylethyl)-1,2,4-oxadiazole]	
2	308	Cc1ccncc1-c1cc(-c2noc(-c3cscn3)n2)nc(C)c1F [Compound 27, 3-(5′-fluoro-4,6′-dimethyl-[3,4′-bipyridin]-2′-yl)-5-(thiazol-4-yl)-1,2,4-oxadiazole]	
4	493	Cc1ccncc1-c1cc(-c2noc(-c3cccc(Cl)n3)n2)nc(C)c1F [Compound 21, 5-(6-chloropyridin-2-yl)-3-(5′-fluoro-4,6′-dimethyl-[3,4′-bipyridin]-2′-yl)-1,2,4-oxadiazole]	
25	> 10000	CCn1cc(-c2cc(-c3noc(-c4nc(C)cs4)n3)nc(C)c2F)cn1 [Compound 17, 3-(4-(1-ethyl-1H-pyrazol-4-yl)-5-fluoro-6-methylpyridin-2-yl)-5-(4-methylthiazol-2-yl)-1,2,4-oxadiazole]	
9	5750	COc1ncc(-c2cc(-c3nnc(-c4ccc(F)cn4)o3)nc(C)c2F)cc1F [Compound 76, 2-(5,5′-difluoro-6-methoxy-6′-methyl-[3,4′-bipyridin]-2′-yl)-5-(5-fluoropyridin-2-yl)-1,3,4-oxadiazole]	
2	190	Cc1cc(-c2cncc(F)c2)cc(-c2noc(-c3ccc(F)cn3)n2)n1 [Compound 55, 3-(5-fluoro-6′-methyl-[3,4′-bipyridin]-2′-yl)-5-(5-fluoropyridin-2-yl)-1,2,4-oxadiazole]	
2	97	Cc1csc(-c2nc(-c3cc(-c4cnccc4C)c(F)c(C)n3)no2)n1 [Compound 15, 3-(5′-fluoro-4,6′-dimethyl-[3,4′-bipyridin]-2′-yl)-5-(4-methylthiazol-2-yl)-1,2,4-oxadiazole]	
36	> 10000	Cc1ccn(Cc2nc(-c3cc(-c4cnccc4C)c(F)c(C)n3)no2)n1 [Compound 65, 3-(5′-fluoro-4,6′-dimethyl-[3,4′-bipyridin]-2′-yl)-5-((3-methyl-1H-pyrazol-1-yl)methyl)-1,2,4-oxadiazole]	
2	375	Cc1ccncc1-c1cc(-c2nnc(-c3ccc(F)cn3)o2)nc(C)c1F [Compound 42, 2-(5′-fluoro-4,6′-dimethyl-[3,4′-bipyridin]-2′-yl)-5-(5-fluoropyridin-2-yl)-1,3,4-oxadiazole]	
2	328	Cc1nc(-c2nc(-c3ccc(F)cn3)no2)cc(-c2cnn(C(F)F)c2)c1F [Compound 9, 5-(4-(1-(difluoromethyl)-1H-pyrazol-4-yl)-5-fluoro-6-methylpyridin-2-yl)-3-(5-fluoropyridin-2-yl)-1,2,4-oxadiazole]	
2	124	Cc1ccncc1-c1cc(-c2nc(-c3ccc(F)cn3)no2)nc(C)c1F [Compound 8, 5-(5′-fluoro-4,6′-dimethyl-[3,4′-bipyridin]-2′-yl)-3-(5-fluoropyridin-2-yl)-1,2,4-oxadiazole]	
2	46	Cc1cc(O[C@@H]2CCOC2)cc(-c2noc(-c3ccccn3)n2)n1 [Compound 113, (R)-3-(6-methyl-4-((tetrahydrofuran-3-yl)oxy)pyridin-2-yl)-5-(pyridin-2-yl)-1,2,4-oxadiazole]	

Compound	remaining activity at 30 µM (% Glu max at 30 μM) [%]	IC50 [nM]	remaining activity at 30 µM [%]
Cc1csc(-c2nnc(-c3cc(-c4cncc(F)c4)c(F)c(C)n3)o2)n1 [Compound 83, 2-(5,5′-difluoro-6′-methyl-[3,4′-bipyridin]-2′-yl)-5-(4-methylthiazol-2-yl)-1,3,4-oxadiazole]		600	2
Cc1nc(-c2nnc(-c3ccc(F)cc3)o2)cc(-c2cncc(F)c2)c1F [Compound 82, 2-(5,5′-difluoro-6′-methyl-[3,4′-bipyridin]-2′-yl)-5-(4-fluorophenyl)-1,3,4-oxadiazole]		778	2
